The assay deals with carrageenan-induced mechanical and thermal allodynia in mice. The experiment in a line: Carrageenan model. In kind it is in vivo. Particulars: naloxone methiodide 100 mg/kg i.p. The protocol:
For behavioural assessment adult male C57BL/6J mice aged 6-8 weeks were used. Animals were housed in groups of 3 or 4 per cage, under 12 h light-dark cycles and had standard rodent chow and water ad libitum.
λ-Carrageenan (Sigma-Aldrich Co.) was dissolved in phosphate buffered saline to a 1% w/v solution (prepared 24 h prior) and administered by intraplantar injection to the left hind paw of mice in a volume of 40 μL under light isoflurane (3%) anaesthesia. Behavioural assessment (mechanical and thermal thresholds) was performed 3 hours after injection of carrageenan.
Mechanical allodynia was assessed using an electronic von Frey apparatus (MouseMet Electronic von Frey, TopCat Metrology Ltd, United Kingdom). […] The force that elicited paw withdrawal was calculated using the MouseMet Software. The paw withdrawal force (PWF) was determined from the average of three tests, separated by at least 2 min.
Mice were habituated in individual mouse runs for at least 5 min prior to testing. […] Removal of the paw and/or the probe by the investigator terminates heating, and triggers display of the withdrawal temperature on the readout, without the need for the investigator to manually stop the heating or record the temperature, until the reset button is pressed. The temperature that elicited a paw withdrawal, known as the paw withdrawal temperature (PWT), was determined by a single test.

Each structure is given as a SMILES string.

Results on 1 compound are retold here after patent US10662229B2, “Spider venom peptides and methods of use for modulating sodium channels” (priority 2016, dated 2020).

Consider `C=CC[N+]1(C)CC[C@]23c4c5ccc(O)c4O[C@H]2C(=O)CC[C@@]3(O)[C@H]1C5` (some centres unmarked) [naloxone methiodide], for which the “analgesic effects of the Pnc1a/oxycodone combination on mechanical allodynia” value is reported as “reversed” and the “analgesic effects of the Pnc1a/oxycodone combination on thermal allodynia” value is “reversed”.
